{"source": "patent US9776979B2", "about": "“EBI2 modulators” (Sanford-Burnham Medical Research Institute, priority 2013, dated 2017)", "molecular_target": "EBI2 (Homo sapiens, UniProt P32249)", "sequence (P32249 whole entry)": "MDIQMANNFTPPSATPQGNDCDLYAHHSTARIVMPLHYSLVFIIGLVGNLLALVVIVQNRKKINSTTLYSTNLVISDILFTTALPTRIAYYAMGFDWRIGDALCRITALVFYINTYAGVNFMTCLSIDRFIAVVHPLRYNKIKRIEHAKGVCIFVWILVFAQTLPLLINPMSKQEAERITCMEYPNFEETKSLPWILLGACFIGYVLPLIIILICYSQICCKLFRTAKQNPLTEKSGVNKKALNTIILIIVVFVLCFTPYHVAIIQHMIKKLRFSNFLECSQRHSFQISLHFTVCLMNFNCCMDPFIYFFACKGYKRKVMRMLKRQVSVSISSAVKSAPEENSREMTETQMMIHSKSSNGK", "test": "Cell-based luminescent assay (EBI2 modulation)", "conditions": "cell-based luminescence; 7a,25-OHC final assay concentration 80 nM; 60 minutes incubation; read-out: IC50", "in_short": "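Cells plated overnight at 37° C, then exposed to compound at 4-5 uM final with 80 nM 7a,25-OHC agonist for 60 min at 37° C. Luminescence read after 60 min detection at 25° C in the dark; values normalized to neutral and stimulator controls and plate-pattern corrected.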"}
{"smiles": "O=C(/C=C/c1ccc(F)cc1)N1CCN(S(=O)(=O)c2cccs2)CC1", "note": "[Compound C367, (2E)-3-(4-fluorophenyl)-1-[4-(2-thienylsulfonyl)piperazinyl]prop-2-en-1-one]", "values": [{"measurement": "IC50", "value": "< 100", "unit": "nM"}]}
{"smiles": "CCCCN1CCN(C(=O)c2cc3cc(Cl)ccc3[nH]2)CC1", "note": "[Compound C368, 4-butylpiperazinyl 5-chloroindol-2-yl ketone]", "values": [{"measurement": "IC50", "value": "< 100", "unit": "nM"}]}
{"smiles": "O=C(C#Cc1ccc(Cl)cc1)N1CCN(Cc2ccc(F)cc2)CC1", "note": "[Compound C369, 3-(4-chlorophenyl)-1-{4-[(4-fluorophenyl)methyl]piperazinyl}prop-2-yn-1-one]", "values": [{"measurement": "IC50", "value": "< 100", "unit": "nM"}]}
{"smiles": "O=C(c1cc2cc(Br)ccc2[nH]1)N1CCN(Cc2ccc(C(F)(F)F)cc2)CC1", "note": "[Compound C371, 5-bromoindol-2-yl 4-{[4-(trifluoromethyl)phenyl]methyl}piperazinyl ketone]", "values": [{"measurement": "IC50", "value": "< 100", "unit": "nM"}]}
{"smiles": "COc1ccc(CN2CCN(C(=O)C#Cc3ccc(Cl)cc3)CC2)cc1", "note": "[Compound C372, 3-(4-chlorophenyl)-1-{4-[(4-methoxyphenyl)methyl]piperazinyl}prop-2-yn-1-one]", "values": [{"measurement": "IC50", "value": "< 100", "unit": "nM"}]}
{"smiles": "O=C(/C=C/c1ccccc1)N1CCN(Cc2ccccc2Cl)CC1", "note": "[Compound C374, (2E)-1-{4-[(2-chlorophenyl)methyl]piperazinyl}-3-phenylprop-2-en-1-one]", "values": [{"measurement": "IC50", "value": "< 100", "unit": "nM"}]}
{"smiles": "O=C(c1ccc(C(F)(F)F)cc1)N1CCN(C(=O)c2cc3ccc(Br)cc3[nH]2)CC1", "note": "[Compound C375, 6-bromoindol-2-yl 4-{[4-(trifluoromethyl)phenyl]carbonyl}piperazinyl ketone]", "values": [{"measurement": "IC50", "value": "100 to 500", "unit": "nM"}]}
{"smiles": "O=C(/C=C/c1ccc(Br)cc1F)N1CCN(S(=O)(=O)c2ccc(Br)cc2)CC1", "note": "[Compound C377, (2E)-3-(4-bromo-2-fluorophenyl)-1-{4-[(4-bromophenyl)sulfonyl]piperazinyl}prop-2-en-1-one]", "values": [{"measurement": "IC50", "value": "< 100", "unit": "nM"}]}
{"smiles": "O=C(c1cc2cc(Cl)ccc2[nH]1)N1CCN(C(=O)c2ccc(F)cc2F)CC1", "note": "[Compound C378, 4-[(2,4-difluorophenyl)carbonyl]piperazinyl 5-chloroindol-2-yl ketone]", "values": [{"measurement": "IC50", "value": "< 100", "unit": "nM"}]}
{"smiles": "O=C(c1cc2sccc2[nH]1)N1CCN(C(c2ccccc2)c2ccccc2)CC1", "note": "[Compound C380, 4-(diphenylmethyl)piperazinyl thiopheno[2,3-d]pyrrol-5-yl ketone]", "values": [{"measurement": "IC50", "value": "< 100", "unit": "nM"}]}
{"smiles": "O=C(c1ccc(Br)cc1)N1CCN(C(=O)c2ccc3ccccc3c2)CC1", "note": "[Compound C381, 4-bromophenyl 4-(2-naphthylcarbonyl)piperazinyl ketone]", "values": [{"measurement": "IC50", "value": "< 100", "unit": "nM"}]}
{"smiles": "O=C(c1ccc(B(O)O)cc1)N1CCN(C(=O)c2cc3ccc(Br)cc3[nH]2)CC1", "note": "[Compound C382, 4-(4-(6-bromo-1H-indole-2-carbonyl)piperazine-1-carbonyl)phenylboronic acid]", "values": [{"measurement": "IC50", "value": "< 100", "unit": "nM"}]}
{"smiles": "O=C(C#Cc1ccc(Cl)cc1)N1CCN(Cc2ccc(Cl)cc2)CC1", "note": "[Compound C384, 3-(4-chlorophenyl)-1-{4-[(4-chlorophenyl)methyl]piperazinyl}prop-2-yn-1-one]", "values": [{"measurement": "IC50", "value": "< 100", "unit": "nM"}]}
{"smiles": "COc1ccc(/C=C/C(=O)N2CCN(S(=O)(=O)c3ccc(C(C)(C)C)cc3)CC2)cc1", "note": "[Compound C385, (2E)-1-(4-{[4-(tert-butyl)phenyl]sulfonyl}piperazinyl)-3-(4-methoxyphenyl)prop-2-en-1-one]", "values": [{"measurement": "IC50", "value": "< 100", "unit": "nM"}]}
{"smiles": "O=C(c1cc2cc(Cl)ccc2[nH]1)N1CCC(Oc2ccc(C(F)(F)F)cc2)CC1", "note": "[Compound C390, 5-chloroindol-2-yl 4-[4-(trifluoromethyl)phenoxy]piperidyl ketone]", "values": [{"measurement": "IC50", "value": "100 to 500", "unit": "nM"}]}
{"smiles": "O=C(c1ccc(C(F)(F)F)cc1)N1CCN(C(=O)c2cc3ccc(Cl)cc3[nH]2)CC1", "note": "[Compound C391, 6-chloroindol-2-yl 4-{[4-(trifluoromethyl)phenyl]carbonyl}piperazinyl ketone]", "values": [{"measurement": "IC50", "value": "< 100", "unit": "nM"}]}
{"smiles": "CC(C)CN1CCN(C(=O)/C=C/c2ccccc2)CC1", "note": "[Compound C392, (2E)-1-[4-(methylpropyl)piperzinyl]-3-phenylprop-2-en-1-one]", "values": [{"measurement": "IC50", "value": "< 100", "unit": "nM"}]}
{"smiles": "N#Cc1cccc(C(=O)N2CCN(C(=O)c3cc4cc(Cl)ccc4[nH]3)CC2)c1", "note": "[Compound C395, 3-({4-[(5-chloroindol-2-yl)carbonyl]piperazinyl}carbonyl)benzenecarbonitrile]", "values": [{"measurement": "IC50", "value": "< 100", "unit": "nM"}]}
{"smiles": "O=C(Nc1cccc(Cl)c1)C1CCN(C(=O)c2cc3cc(Cl)ccc3[nH]2)CC1", "note": "[Compound C396, {1-[(5-chloroindol-2-yl)carbonyl](4-piperidyl)}-N-(3-chlorophenyl)carboxamide]", "values": [{"measurement": "IC50", "value": "< 100", "unit": "nM"}]}
{"smiles": "O=Cc1ccc(C(=O)N2CCN(C(=O)c3cc4cc(Cl)ccc4[nH]3)CC2)cc1", "note": "[Compound C397, 4-({4-[(5-chloroindol-2-yl)carbonyl]piperazinyl}carbonyl)benzaldehyde]", "values": [{"measurement": "IC50", "value": "< 100", "unit": "nM"}]}
{"smiles": "O=C(C#Cc1ccc(Cl)cc1)N1CCN(C(=O)c2ccc(F)cc2C(F)(F)F)CC1", "note": "[Compound C399, 3-(4-chlorophenyl)-1-(4-{[4-fluoro-2-(trifluoromethyl)phenyl]carbonyl}piperazinyl)prop-2-yn-1-one]", "values": [{"measurement": "IC50", "value": "< 100", "unit": "nM"}]}
{"smiles": "Cc1cccc(N2CCN(C(=O)c3cc4cc(Cl)ccc4[nH]3)CC2)c1C", "note": "[Compound C400, 4-(2,3-dimethylphenyl)piperazinyl 5-chloroindol-2-yl ketone]", "values": [{"measurement": "IC50", "value": "< 100", "unit": "nM"}]}
{"smiles": "O=C(C#Cc1ccc(Br)cc1)N1CCN(Cc2ccc(F)cc2)CC1", "note": "[Compound C401, 3-(4-bromophenyl)-1-{4-[(4-fluorophenyl)methyl]piperazinyl}prop-2-yn-1-one]", "values": [{"measurement": "IC50", "value": "< 100", "unit": "nM"}]}
{"smiles": "O=C(c1cc2cc(Cl)ccc2[nH]1)N1CCN(Cc2ccc(C(F)(F)F)c(F)c2)CC1", "note": "[Compound C402, 5-chloroindol-2-yl 4-{[3-fluoro-4-(trifluoromethyl)phenyl]methyl}piperazinyl ketone]", "values": [{"measurement": "IC50", "value": "< 100", "unit": "nM"}]}
{"smiles": "O=C(c1cc2cc(Cl)ccc2[nH]1)N1CCN(Cc2cccc(-c3ccccc3)c2)CC1", "note": "[Compound C403, 5-chloroindol-2-yl 4-[(3-phenylphenyl)methyl]piperazinyl ketone]", "values": [{"measurement": "IC50", "value": "< 100", "unit": "nM"}]}
{"smiles": "O=C(/C=C/c1ccc(Br)cc1F)N1CCN(S(=O)(=O)c2ccccc2)CC1", "note": "[Compound C404, (2E)-3-(4-bromo-2-fluorophenyl)-1-[4-(phenylsulfonyl)piperazinyl]prop-2-en-1-one]", "values": [{"measurement": "IC50", "value": "< 100", "unit": "nM"}]}
{"smiles": "O=C(CCc1ccc(F)cc1)N1CCN(S(=O)(=O)/C=C/c2ccccc2)CC1", "note": "[Compound C406, 1-{4-[((1E)-2-phenylvinyl)sulfonyl]piperazinyl}-3-(4-fluorophenyl)propan-1-one]", "values": [{"measurement": "IC50", "value": "100 to 500", "unit": "nM"}]}
{"smiles": "O=C(/C=C/c1ccccc1)N1CCN(CCOc2ccc(Cl)cc2Cl)CC1", "note": "[Compound C407, (2E)-1-{4-[2-(2,4-dichlorophenoxy)ethyl]piperazinyl}-3-phenylprop-2-en-1-one]", "values": [{"measurement": "IC50", "value": "100 to 500", "unit": "nM"}]}
{"smiles": "O=C(C#Cc1ccc(Br)cc1)N1CCN(Cc2ccc(C(F)(F)F)cc2)CC1", "note": "[Compound C408, 3-(4-bromophenyl)-1-(4-{[4-(trifluoromethyl)phenyl]methyl}piperazinyl)prop-2-yn-1-one]", "values": [{"measurement": "IC50", "value": "100 to 500", "unit": "nM"}]}
{"smiles": "O=C(c1ccc(B(O)O)cc1)N1CCN(C(=O)c2cc3cc(Cl)ccc3[nH]2)CC1", "note": "[Compound C409, 4-(4-(5-chloro-1H-indole-2-carbonyl)piperazine-1-carbonyl)phenylboronic acid]", "values": [{"measurement": "IC50", "value": "100 to 500", "unit": "nM"}]}
{"smiles": "O=C(c1cc2cc(Cl)ccc2[nH]1)N1CCC(Oc2ccccc2)CC1", "note": "[Compound C413, 5-chloroindol-2-yl 4-phenoxypiperidyl ketone]", "values": [{"measurement": "IC50", "value": "100 to 500", "unit": "nM"}]}
{"smiles": "O=C(Oc1ccccc1)N1CCN(C(=O)c2cc3cc(Cl)ccc3[nH]2)CC1", "note": "[Compound C416, phenyl 4-[(5-chloroindol-2-yl)carbonyl]piperazinecarboxylate]", "values": [{"measurement": "IC50", "value": "100 to 500", "unit": "nM"}]}
{"smiles": "O=C(Nc1cccc(F)c1)C1CCN(C(=O)c2cc3cc(Cl)ccc3[nH]2)CC1", "note": "[Compound C417, {1-[(5-chloroindol-2-yl)carbonyl](4-piperidyl)}-N-(3-fluorophenyl)carboxamide]", "values": [{"measurement": "IC50", "value": "100 to 500", "unit": "nM"}]}
{"smiles": "O=C(c1cc2cc(Cl)ccc2[nH]1)N1CCN(Cc2ccc(F)c(C(F)(F)F)c2)CC1", "note": "[Compound C420, 5-chloroindol-2-yl 4-{[4-fluoro-3-(trifluoromethyl)phenyl]methyl}piperazinyl ketone]", "values": [{"measurement": "IC50", "value": "100 to 500", "unit": "nM"}]}
{"smiles": "COc1ccc(-c2ccc(S(=O)(=O)N3CCN(C(=O)c4cc5cc(Cl)ccc5[nH]4)CC3)cc2)cc1", "note": "[Compound C421, 5-chloroindol-2-yl 4-{[4-(4-methoxyphenyl)phenyl]sulfonyl}piperazinyl ketone]", "values": [{"measurement": "IC50", "value": "100 to 500", "unit": "nM"}]}
{"smiles": "O=C(c1cc2cc(Cl)ccc2[nH]1)N1CCN(Cc2cc(C(F)(F)F)cc(C(F)(F)F)c2)CC1", "note": "[Compound C423, 4-{[3,5-bis(trifluoromethyl)phenyl]methyl}piperazinyl 5-chloroindol-2-yl ketone]", "values": [{"measurement": "IC50", "value": "100 to 500", "unit": "nM"}]}
{"smiles": "O=C(c1cc2cc(Cl)ccc2[nH]1)N1CCN(Cc2ccc(F)cc2C(F)(F)F)CC1", "note": "[Compound C426, 5-chloroindol-2-yl 4-{[4-fluoro-2-(trifluoromethyl)phenyl]methyl}piperazinyl ketone]", "values": [{"measurement": "IC50", "value": "100 to 500", "unit": "nM"}]}
{"smiles": "O=C(c1cc2cc(Cl)ccc2[nH]1)N1CCN(Cc2ccc(F)cc2F)CC1", "note": "[Compound C427, 4-[(2,4-difluorophenyl)methyl]piperazinyl 5-chloroindol-2-yl ketone]", "values": [{"measurement": "IC50", "value": "100 to 500", "unit": "nM"}]}
{"smiles": "O=C(c1cc2cc(Cl)ccc2[nH]1)N1CCN(Cc2ccc(Cl)cc2C(F)(F)F)CC1", "note": "[Compound C428, 5-chloroindol-2-yl 4-{[4-chloro-2-(trifluoromethyl)phenyl]methyl}piperazinyl ketone]", "values": [{"measurement": "IC50", "value": "100 to 500", "unit": "nM"}]}
{"smiles": "O=C(Nc1ccc(Cl)cc1)N1CCN(C(=O)c2cc3cc(Cl)ccc3[nH]2)CC1", "note": "[Compound C429, {4-[(5-chloroindol-2-yl)carbonyl]piperazinyl}-N-(4-chlorophenyl)carboxamide]", "values": [{"measurement": "IC50", "value": "100 to 500", "unit": "nM"}]}
{"smiles": "O=C(C=Cc1ccc2c(c1)OCO2)N1CCN(C(=O)c2ccc(C(F)(F)F)cc2)CC1", "note": "[Compound C430, 3-(2H-benzo[3,4-d]1,3-dioxolen-5-yl)-1-(4-{[4-(trifluoromethyl)phenyl]carbonyl}piperazinyl)prop-2-en-1-one]", "values": [{"measurement": "IC50", "value": "100 to 500", "unit": "nM"}]}
{"smiles": "O=C(c1cc2cc(Cl)ccc2[nH]1)N1CCN(c2ccc(F)cc2F)CC1", "note": "[Compound C434, 4-(2,4-difluorophenyl)piperazinyl 5-chloroindol-2-yl ketone]", "values": [{"measurement": "IC50", "value": "100 to 500", "unit": "nM"}]}
